Patent US6706663B2, “Herbicidal 3-heterocyclic substituted benzisothiazole and benzisoxazole compounds” (Wyeth, priority 2000, dated 2004)

Test system: GLXMA (Soybean)
Experiment: Postemergence herbicidal evaluation
Type: in vivo, Glycine max, (L.) Merr.
Settings: for GLXMA herbicidal rating: postemergence
Experimental: In the tests, seedling plants are grown in jiffy flats for about two weeks. The test compounds are dispersed in 50/50 acetone/water mixtures containing 0.5% TWEEN® 20, a polyoxyethylene sorbitan monolaurate surfactant of Atlas Chemical Industries, in sufficient quantities to provide the equivalent of about 0.0040 kg to 1.000 kg per hectare of active compound when applied to the plants through a spray nozzle operating at 40 psi for a predetermined time. After spraying, the plants are placed on greenhouse benches and are cared for in accordance with conventional greenhouse procedures. From four to five weeks after treatment, the seedling plants are examined and rated according to the rating system set forth below. Where more than one test is involved for a given compound, the data are averaged.
Results of herbicide evaluation are expressed on a rating scale (0-9). The scale is based upon a visual observation of plant stand, vigor, malformation, size, chlorosis and overall plant appearance as compared with a control.

| Compound | GLXMA herbicidal rating (rate 0.0320 kg/ha) | GLXMA herbicidal rating (rate 0.0620 kg/ha) | Postemergence herbicidal rating, GLXMA (rate 0.0320 kg/ha) |
| --- | --- | --- | --- |
| Cn1c(C(F)(F)F)cc(=O)n(-c2cc3c(C4OCCO4)nsc3cc2F)c1=O [Compound 61, 3-[3-(1,3-dioxolan-2-yl)-6-fluoro-1,2-benzisothiazol-5-yl]-1-methyl-6-(trifluoromethyl)uracil] | 8.5 | 8.5 |  |
| Cc1ccsc1-c1nsc2ccc(-n3c(=O)cc(C(F)(F)F)n(C)c3=O)cc12 [Compound 4, 1-methyl-3-[3-(3-methyl-2-thienyl)-1,2-benzisothiazol-5-yl]-6-(trifluoromethyl)uracil] |  |  | 9.0 |
